Experiments:
[1] = system: MOLP-8 human multiple myeloma cell line; assay: MOLP8 Caspase-Glo 3/7 apoptosis induction assay; assay type: cell-based; settings: MOLP-8 cells, 2 hours incubation at 37° C., averaged values over all runs on all batches
Text: MCL-1 is a regulator of apoptosis and is highly over-expressed in tumor cells that escape cell death. The assay evaluates the cellular potency of small-molecule compounds targeting regulators of the apoptosis pathway, primarily MCL-1, Bfl-1, Bcl-2, and other proteins of the Bcl-2 family. Protein-protein inhibitors disrupting the interaction of anti-apoptotic regulators with BH3-domain proteins initiate apoptosis.
The Caspase-Glo® 3/7 Assay is a luminescent assay that measures caspase-3 and -7 activities in purified enzyme preparations or cultures of adherent or suspension cells. The assay provides a proluminescent caspase-3/7 substrate, which contains the tetrapeptide sequence DEVD. This substrate is cleaved to release aminoluciferin, a substrate of luciferase used in the production of light. Addition of the single Caspase-Glo® 3/7 Reagent in an “add-mix-measure” format results in cell lysis, followed by caspase cleavage of the substrate and generation of a “glow-type” luminescent signal.
This assay uses the MOLP-8 human multiple myeloma cell line, which is sensitive to MCL-1 inhibition.
Materials: • Perkin Elmer Envision • Multidrop 384 and small volume dispensing cassettes • Centrifuge • Countess automated cell counter • Countess counting chamber slides • Assay plate: ProxiPlate-384 Plus, White 384-shallow well Microplate • Sealing tape: Topseal A plus • T175 culture flask
Cell cultures were maintained between 0.2 and 2.0×10^6 cells/mL. The cells were harvested by collection in 50 mL conical tubes. The cells were then pelleted at 500 g for 5 mins before removing supernatant and resuspension in fresh pre-warmed culture medium. The cells were counted and diluted as needed.
The assay reagent was prepared by transferring the buffer solution to the substrate vial and mixing. The solution may be stored for up to 1 week at 4° C. with negligible loss of signal.
Compounds were delivered in assay-ready plates (Proxiplate) and stored at −20° C.
Assays always include 1 reference compound plate containing reference compounds. The plates were spotted with 40 nL of compounds (0.5% DMSO final in cells; serial dilution; 30 μM highest conc. 1/3 dilution, 10 doses, duplicates). The compounds were used at room temperature and 4 μL of pre-warmed media was added to all wells except column 2 and 23. The negative control was prepared by adding 1% DMSO in media. The positive control was prepared by adding the appropriate positive control compound in final concentration of 60 μM in media. The plate was prepared by adding 4 μL negative control to column 23, 4 μL positive control to column 2 and 4 μL cell suspension to all wells in the plate. The plate with cells was then incubated at 37° C. for 2 hours. The assay signal reagent is the Caspase-Glo solution described above, and 8 μL was added to all wells. The plates were then sealed and measured after 30 minutes.
The activity of a test compound was calculated as percent change in apoptosis induction as follows: • LC=median of the Low Control values • =Central Reference in Screener • =DMSO • =0% • HC=Median of the High Control values • =Scale Reference in Screener • =30 μM of positive control • =100% apoptosis induction
% Effect (AC50)=100−((sample−LC)/(HC−LC))*100
% Control=(sample/HC)*100
% Control min=((sample−LC)/(HC−LC))*100

[2] = molecular target: Myeloid Cell Leukemia 1 (Mcl-1) (Homo sapiens (Human), UniProt Q07820); assay: Terbium labeled Mcl-1 HTRF binding assay (displacement of Cy5-labeled BIM BH3 peptide); settings: 25 pM Tb-Mcl-1, 8 nM Cy5 Bim peptide, Ki=IC50/(1+[L]/Kd), [L]=8 nM, Kd=10 nM, read-out: TB-MCL1 Ki
Experimental: Terbium labeled Myeloid Cell Leukemia 1 (Mcl-1) homogeneous time-resolved fluorescence (HTRF) binding assay utilizing the BIM BH3 peptide (H2N-(C/Cy5Mal) WIAQELRRIGDEFN-OH) as the binding partner for Mcl-1.
This assay evaluated inhibition of the BH3 domain: Mcl-1 interaction by measuring the displacement of Cy5-labeled BIM BH3 peptide (H2N—(C/Cy5Mal) WIAQELRRIGDEFN-OH) in the HTRF assay format.
The following assay and stock buffers were prepared for use in the assay: (a) Stock buffer: 10 mM Tris-HCl, pH=7.5+150 mM NaCl, filtered, sterilized, and stored at 4° C.; and (b) 1× assay buffer, where the following ingredients were added fresh to stock buffer: 2 mM dithiothreitol (DTT), 0.0025% Tween-20, 0.1 mg/mL bovine serum albumin (BSA). The 1×Tb-Mcl-1+Cy5 Bim peptide solution was prepared by diluting the protein stock solution using the 1× assay buffer (b) to 25 pM Tb-Mcl-1 and 8 nM Cy5 Bim peptide.
Using the Acoustic ECHO, 100 nL of 100× test compound(s) were dispensed into individual wells of a white 384-well Perkin Elmer Proxiplate, for a final compound concentration of 1× and final DMSO concentration of 1%. Inhibitor control and neutral control (NC, 100 nL of 100% DMSO) were stamped into columns 23 and 24 of assay plate, respectively. Into each well of the plate was then dispensed 10 μL of the 1×Tb-Mcl-1+Cy5 Bim peptide solution. The plate was centrifuged with a cover plate at 1000 rpm for 1 minute, then incubated for 60 minutes at room temperature with plates covered. The TR-FRET signal was read on an BMG PHERAStar FSX MicroPlate Reader at room temperature using the HTRF optic module (HTRF: excitation: 337 nm, light source: laser, emission A: 665 nm, emission B: 620 nm, integration start: 60 μs, integration time: 400 pts).
The BMG PHERAStar FSX MicroPlate Reader was used to measure fluorescence intensity at two emission wavelengths—665 nm and 620 nm—and report relative fluorescence units (RFU) for both emissions, as well as a ratio of the emissions (665 nm/620 nm)*10,000. The RFU values were normalized to percent inhibition as follows:
% inhibition=(((NC−IC)−(compound−IC))/(NC−IC))*100
where IC (inhibitor control, low signal)=mean signal of 1×Tb-MC1-1+Cy5 Bim peptide+inhibitor control or 100% inhibition of Mcl-1; NC (neutral control, high signal)=mean signal 1×Tb-MC1-1+Cy5 Bim peptide with DMSO only or 0% inhibition
An 11-point dose response curve was generated to determine IC50 values (using GenData) based on the following equation:
Y=Bottom+(Top−Bottom)/(1+10^((log IC50−X)*HillSlope))
where Y=% inhibition in the presence of X inhibitor concentration; Top=100% inhibition derived from the IC (mean signal of Mcl-1+inhibitor control); Bottom=0% inhibition derived from the NC (mean signal of Mcl-1+DMSO); Hillslope=Hill coefficient; and IC50=concentration of compound with 50% inhibition in relation to top/neutral control (NC).
In this assay [L]=8 nM and Kd=10 nM
Representative compounds of the present invention were tested according to the procedure as described above, with results as listed in the Table below (n.d. means not determined).

Chain of Myeloid Cell Leukemia 1 (Mcl-1) (Q07820 whole entry): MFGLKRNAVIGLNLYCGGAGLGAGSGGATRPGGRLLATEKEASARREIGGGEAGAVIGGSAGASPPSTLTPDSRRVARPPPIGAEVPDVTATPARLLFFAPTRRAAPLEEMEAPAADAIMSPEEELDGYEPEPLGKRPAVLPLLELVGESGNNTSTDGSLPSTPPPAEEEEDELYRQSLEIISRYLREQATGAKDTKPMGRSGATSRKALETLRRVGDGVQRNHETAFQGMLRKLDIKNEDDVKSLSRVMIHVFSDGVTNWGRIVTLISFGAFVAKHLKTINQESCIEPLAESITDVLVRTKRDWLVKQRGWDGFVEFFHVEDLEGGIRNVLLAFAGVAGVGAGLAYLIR

Row | SMILES | AC50 [1] [nM] | Ki [2] [nM] | AC50 ([1]; Homo sapiens, MOLP-8, 2 h) [nM]
1 | COc1ccc(COC2CCc3cc(n(C)n3)CCc3cc(c4ccc(F)cc4c3)OCCCn3c(C(=O)O)c(C)c4c(c(Cl)ccc43)-c3c2nn(C)c3C)cc1 (single isomer, unassigned) [Compound 22] | 1000 | 0.357 | 
2 | COc1ccc(COC2CCc3cc(n(C)n3)CCc3cc(c4ccc(F)cc4c3)OCCCn3c(C(=O)O)c(C)c4c(c(Cl)ccc43)-c3c2nn(C)c3C)cc1 (single isomer, unassigned) [Compound 23] | 169 | 0.073 | 
3 | COCCCC1OCc2cc(n(C)n2)CCc2cc(c3ccc(F)cc3c2)OCCCn2c(C(=O)O)c(C)c3c(c(Cl)ccc32)-c2c1nn(C)c2C (single isomer, unassigned) [Compound 24] | > 25 | 8.42 | 
4 | Cc1c(C(=O)O)n2c3ccc(Cl)c(c13)-c1c(nn(C)c1C)C(CCO)OCc1cc(n(C)n1)CCc1cc(c3ccc(F)cc3c1)OCCC2 (stereo not shown) [Compound 6] |  | 0.009 | 52.7
5 | COCCOCCn1nc(C)c2c1C(C)OCc1cc(n(C)n1)CCc1cc(c3ccc(F)cc3c1)OCCCn1c(C(=O)O)c(C)c3c-2c(Cl)ccc31 (stereo not shown) [Compound 21] | 318 | 0.057 | 
6 | CNCCC1OCc2cc(n(C)n2)CCc2cc(c3ccc(F)cc3c2)OCCCn2c(C(=O)O)c(C)c3c(c(Cl)ccc32)-c2c1nn(C)c2C (stereo not shown) [Compound 26] |  | 3.61 | > 30
7 | Cc1nn2c3c1-c1c(Cl)ccc4c1c(C)c(C(=O)O)n4CCCOc1cc(cc4cc(F)ccc14)CCc1cc(nn1C)CCC3OCC2 (stereo not shown) [Compound 29] | 146 | 0.302 | 
8 | COCCn1nc2cc1CCc1cc(c3ccc(F)cc3c1)OCCCn1c(C(=O)O)c(C)c3c(c(Cl)ccc31)-c1c(C)nn3c1C(CC2)OCC3 (stereo not shown) [Compound 34] | 889 | 0.408 | 

From US20240124487A1, “BRANCHED MACROCYCLIC 4-(PYRAZOL-5-YL)-INDOLE DERIVATIVES AS INHIBITORS OF MCL-1” (JANSSEN PHARMACEUTICA NV, priority 2020, published 2024)
